Assay results taken from article PMC10186366 (ACS Pharmacology & Translational Science, 2023).

What was measured:
KB tumor cells = assay: Metabolite rescue of growth inhibition in KB cells; type: cell-based, human; settings: glycine- and nucleoside-free media; for Protection from growth inhibition by glycine plus adenosine over adenosine alone: 160 μM glycine combined with 60 μM adenosine; for Protection from growth inhibition by adenosine: inhibitor up to 1000 nM, 60 μM adenosine alone
Description: Upper panel: schematic of C1 metabolism. Undefined abbreviations include the following: DHF, dihydrofolate; THF, tetrahydrofolate; FAICAR, formyl 5-aminoimidazole-4-carboxamide ribonucleotide; fGAR, formyl GAR; and 5,10-meTHF, 5,10-methylene tetrahydrofolate. Lower panels: KB cells were plated (4000 cells/well) in glycine-, nucleoside-, and folate-free RPMI 1640 medium with 10% dialyzed fetal bovine serum, antibiotics, L-glutamine, and 2 nM leucovorin over a range of inhibitor concentrations in the presence of adenosine (60 μM), glycine (160 μM), thymidine (10 μM), or AICA (320 μM). As shown, combined glycine plus adenosine or AICA was also tested to identify potential mitochondrial C1 targeting.[45] Cell proliferation was assayed with a fluorescence-based assay.[26] Data are representative of at least triplicate experiments (presented as mean values plus/minus standard errors). Methods are described in the Experimental Section, and additional metabolite rescue data for 4, 5, and 8–11 are presented in Figure S3 (Supporting Information).
Metabolite “rescue” experiments have been used to identify targeted pathways for novel antifolate inhibitors including de novo purine nucleotide and thymidylate biosynthesis (protection by adenosine and thymidine, respectively)[25]−[27],[29],[30],[32],[43],[45]−[47] and mitochondrial C1 metabolism (protection by glycine and adenosine).[45] To gain insights into the targeted pathways that contribute to the loss of KB tumor cell proliferation upon treatment with compounds 3–9, we tested the reversal of growth inhibition by the active compounds in Table 1 (up to 1000 nM) in glycine- and nucleoside-free media in the presence of 60 μM adenosine, 160 μM glycine, or 10 μM thymidine alone or with combined adenosine and glycine. The use of glycine- and nucleoside-free media for these experiments expands the ability to identify causal intracellular targets (including previously unrecognized mitochondrial targets[45]) that can be confirmed by targeted metabolomics and direct in vitro assays (below). […] The results of these experiments are shown in Figure 7 (lower panel) and in Figure S3 (Supporting Information).
AICA circumvents the first folate-dependent enzyme, GARFTase, and is directly metabolized to ZMP (AICAR), thus providing a substrate for AICARFTase[26],[32],[46] (Figure 7, upper panel). This distinguishes primary inhibition at GARFTase (protection by AICA) versus AICARFTase (incomplete protection by AICA) for inhibitors of de novo purine biosynthesis.[25]
Additional proliferation assays with metabolite rescue used KB cells to identify the targeted pathway and enzyme(s) in folate- and glycine-free RPMI1640, DFBS, 2 mM glutamine, and antibiotics. […] These assays have been previously described.[25],[26],[45]

[1] = test system: R2/PCFT4 CHO cells (expresses only human PCFT); assay: Cell proliferation assay, R2/PCFT4 CHO subline; type: cell-based, Chinese hamster; settings: 96 h, 25 nM leucovorin, mean (standard error)
Text: (§1) We used a unique panel of engineered Chinese hamster ovary (CHO) sublines derived from a transporter-null MTXRIIOua^R2-4 CHO subline (R2) and designed to individually express human FRα (RT16), FRβ (D4), RFC (PC43-10), or PCFT (R2/PCFT).[39]−[42] As the CHO sublines are isogenic and differ only in the presence or absence of the human folate transporters, differences in the extent of inhibition of cell proliferation between the cell lines upon treatment with the various compounds provide a robust readout of transport specificities.[25],[26],[29],[30],[43]
(§2) The CHO sublines were treated for 96 h with a range of drug concentrations up to 1000 nM; cell viabilities were measured with a fluorescence assay.[26] […] As a control, we used transporter-null R2 cells.[42] To extend studies to human tumor cells, we also performed experiments in RFC-, PCFT-, and FRα-expressing KB tumor cells.[44] To confirm the contribution of FR-mediated uptake to antitumor activity, for KB cells, we added 200 nM folic acid, which inhibits FR uptake by direct competition without effects on either RFC or PCFT.[25],[26],[28]−[30],[43]
(§3) The MTXRIIOua^R2-4 RFC-, PCFT-, and FRα-null Chinese hamster ovary (CHO) cell line (R2) was a gift from Dr. Wayne Flintoff (University of Western Ontario).[40],[42] Isogenic CHO cell lines were subsequently derived from R2 cells by transfection with RFC, PCFT, or FRα cDNAs to generate PC43-10 (expresses only human RFC), R2/PCFT4 (expresses only human PCFT), RT16 (expresses only human FRα), and D4 (expresses only human FRβ).[25],[26],[39]
(§4) The CHO sublines were cultured in α-minimal essential medium (α-MEM) supplemented with 100 U/mL penicillin/100 μg/mL streptomycin, 2 mM L-glutamine, and 10% bovine calf serum (Sigma-Aldrich). For the PC43-10, R2/PCFT4, RT16, and D4 sublines, 1.5 mg/mL G418 was also added. Seventy-two hours prior to in vitro proliferation assays (below), RT16 and D4 CHO cells were grown in folate-free RPMI with dialyzed fetal bovine serum (DFBS) (Invitrogen) supplemented with 100 U/mL penicillin/[…] streptomycin and 2 mM L-glutamine. FRα-expressing KB nasopharyngeal carcinoma cells were acquired from the American Type Culture Collection (Manassas, VA); cells were grown in complete folate-free RPMI 1640 supplemented with 10% fetal bovine serum, 100 U/mL penicillin/100 μg/mL streptomycin, and 2 mM L-glutamine. Cell lines were authenticated by STR analysis (Genetica DNA Laboratories, Burlington, NC) and tested for Mycoplasma by PCR (Venor GeM Mycoplasma Detection Kit, Sigma). Frozen stocks were generated from authenticated Mycoplasma-free cultures.
(§5) Cell proliferation assays used CHO and KB cells cultured in folate-free-RPMI 1640 media with 10% DFBS, 2 mM L-glutamine, and 100 U/mL penicillin/100 μg/mL streptomycin supplemented with 2 nM (KB, RT16, D4) or 25 nM (R2, PC43-10, R2/PCFT4) leucovorin.[25],[26],[30] Parallel incubations with 200 nM folic acid were performed in viability assays to confirm FR-mediated drug uptake. Cells were plated in 96-well dishes at 2500–5000 cells/well in 200 μL media and treated with a range of C1 inhibitors spanning 0 to 1 μM. Cells were treated at 37 ° C with 5% CO2, and numbers were assayed after 96 h using CellTiter-blue (Promega, Madison, WI) and a fluorescence plate reader.[25],[26]

[2] = test system: D4 CHO cells (expresses only human FRβ); assay: Cell proliferation assay, D4 CHO subline; type: cell-based, Chinese hamster; settings: 96 h, 2 nM leucovorin, mean (standard error)
Text: as §1, §2, §3, §4, §5

| Compound | Protection from growth inhibition by glycine plus adenosine over adenosine alone (KB tumor cells) | IC50 [1] [µM] | IC50 [2] [µM] | Protection from growth inhibition by adenosine (KB tumor cells) |
| --- | --- | --- | --- | --- |
| Nc1nc2sc(CCCc3ccc(C(=O)N[C@@H](CCC(=O)O)C(=O)O)cc3)cc2c(=O)[nH]1 [Compound 1] | substantially enhanced and was complete |  |  |  |
| Nc1nc2sc(CCCCc3cccc(C(=O)N[C@@H](CCC(=O)O)C(=O)O)n3)cc2c(=O)[nH]1 [Compound 3, (6-(4-(2-Amino-4-oxo-3,4-dihydrothieno[2,3-d]pyrimidin-6-yl)butyl)picolinoyl)-L-glutamic Acid] |  | > 1 | 0.0419 |  |
| Nc1nc2sc(CCCCc3ccc(C(=O)N[C@@H](CCC(=O)O)C(=O)O)nc3)cc2c(=O)[nH]1 [Compound 4, (5-(4-(2-Amino-4-oxo-3,4-dihydrothieno[2,3-d]pyrimidin-6-yl)butyl)picolinoyl)-L-glutamic Acid] | slightly and reproducibly enhanced | 0.318 | 0.0607 | substantially protective |
| Nc1nc2sc(CCCCc3cnc(C(=O)N[C@@H](CCC(=O)O)C(=O)O)c(F)c3)cc2c(=O)[nH]1 [Compound 5, (5-(4-(2-Amino-4-oxo-3,4-dihydrothieno[2,3-d]pyrimidin-6-yl)butyl)-3-fluoropicolinoyl)-L-glutamic Acid] |  | 0.344 | 0.00025 | completely protective |
| Nc1nc2sc(CCCc3ccc(C(=O)N[C@@H](CCC(=O)O)C(=O)O)c(F)c3)cc2c(=O)[nH]1 [Compound 6, (4-(3-(2-Amino-4-oxo-3,4-dihydrothieno[2,3-d]pyrimidin-6-yl)propyl)-2-fluorobenzoyl)-L-glutamic Acid] | substantially enhanced and was complete | 0.591 | 0.00048 |  |
| Nc1nc2sc(CCCCc3ccc(C(=O)N[C@@H](CCC(=O)O)C(=O)O)c(F)c3)cc2c(=O)[nH]1 [Compound 7, (4-(4-(2-Amino-4-oxo-3,4-dihydrothieno[2,3-d]pyrimidin-6-yl)butyl)-2-fluorobenzoyl)-L-glutamic Acid] | slightly and reproducibly enhanced | > 1 | 0.00114 | substantially protective |
| Nc1nc2sc(CCCc3csc(C(=O)N[C@@H](CCC(=O)O)C(=O)O)c3F)cc2c(=O)[nH]1 [Compound 8, (4-(3-(2-Amino-4-oxo-3,4-dihydrothieno[2,3-d]pyrimidin-6-yl)propyl)-3-fluorothiophene-2-carbonyl)-L-glutamic Acid] |  | > 1 | 0.00026 | completely protective |
| Nc1nc2sc(CCCCc3csc(C(=O)N[C@@H](CCC(=O)O)C(=O)O)c3F)cc2c(=O)[nH]1 [Compound 9, (4-(4-(2-Amino-4-oxo-3,4-dihydrothieno[2,3-d]pyrimidin-6-yl)butyl)-3-fluorothiophene-2-carbonyl)-L-glutamic Acid] | slightly and reproducibly enhanced | 0.167 | 0.00048 | substantially protective |
